Measured values as given in patent publication US20180133211A1, “METHODS AND MATERIALS FOR PROMOTING BONE FORMATION” (Mayo Foundation for Medical Education and Research, priority 2015, published 2018).

How the values were obtained:
[1] = tested on: sham operated or ovariectomized (OVX) mice; experiment: Quantitative backscattered electron imaging (qBEI) of bone mineralization, SFN in vivo; parameters: species or system mouse; details: two-way ANOVA
Procedure: Analysis of SFN on mice was performed using a protocol similar to that described elsewhere (Kong et al., Arthritis Rheum., 62:159-170 (2010)). In the experimental setting herein, eight week old sham operated or ovariectomized (OVX) C57B16/J female mice were purchased from Charles River laboratories. Mice were injected with 7.5 mM DL-SFN (200 μL of SFN at a concentration of 63.8 mg/mL/kg dissolved in ethanol and further diluted in PBS) intraperitoneally every other day for five weeks. Control mice received vehicle alone.
Un-decalcified distal femora from 13 weeks old mice, sham/Crt (n=5), sham/DL-SFN (n=5), OVX/ctrl (n=4) and OVX/DL-SFN (n=5), were fixed and dehydrated in alcohol, embedded in polymethylmethacrylate (PMMA), and prepared for backscattered electron imaging as previously described. qBEI is based on backscattering of electrons from the surface-layer (i.e., the initial ˜1.5 micron) of a bone section. The rate of these backscattered electrons is proportional to the weight concentration of mineral (hydroxyapatite), and thus of that of calcium in bone. Details of the method were described elsewhere (Roschger et al., Bone, 42:456-466 (2008)). A scanning electron microscope (DSM 962, Zeiss, Oberkochen, Germany) equipped with a four quadrant semiconductor backscattered electron detector was used. […]

[2] = Body and spleen weight in GSK126 in vivo studies; parameters: species or system mouse
Procedure: Female C57BL/6 mice (Harlan Laboratories) were maintained on a 12-hour light/12-hour dark cycle and were permitted ad libitum access to food and water. For efficacy studies, 6-week old mice received daily intraperitoneal (IP) injections of GSK126 at 15 mg/kg, 50 mg/kg, or vehicle (DMSO) in 20% Captisol adjusted to pH 4-4.5 with IN acetic acid (McCabe et al., Nature, 492:108-112 (2012)) for 5 weeks.
The dosage, delivery schedule, and administration route were similar to those described elsewhere (McCabe et al., Nature, 492:108-112 (2012)). Animals were weighed daily. To label mineralizing bone surfaces, mice received subcutaneous injections of calcein (10 mg/kg) 5 days and 24 hours before euthanasia.
The effects of GSK126 administration on the skeleton was evaluated in an estrogen-deficient ovariectomy (OVX) model. At about 12 weeks of age, female C57BL/6 mice underwent either sham or OVX surgeries. The following day, animals received daily IP injections of GSK126 or vehicle (DMSO) at 50 mg/kg body weight for 6 weeks as described herein. To label mineralizing bone surfaces and study bone formation rates, mice received subcutaneous injections of tetracycline (25 mg/kg) 14 days prior sacrifice and calcein (10 mg/kg) at 5 days and 24 hours before euthanasia.

Row | SMILES | CaPeak and CaWidth of trabecular bone (qBEI) [1] | body or spleen weight at sacrifice ([2]; C57bl/6 mice, 15 mg/kg or 50 mg/kg GSK126 for 5 weeks vs vehicle) | Body and spleen weights ([2]; mouse ovariectomy model, six weeks of daily injections, between surgical and treatment groups)
1 | C[S+]([O-])CCCCN=C=S (racemic) [DL-SFN] | no effects |  | 
2 | CC[C@H](C)n1cc(C)c2c(C(=O)NCc3c(C)cc(C)[nH]c3=O)cc(-c3ccc(N4CCNCC4)nc3)cc21 [GSK126, N-[(1,2-dihydro-4,6-dimethyl-2-oxo-3-pyridinyl)methyl]-3-methyl-1-[(1S)-1-methylpropyl]-6-[6-(1-piperazinyl)-3-pyridinyl]-1H-indole-4-carboxamide] |  | No changes | similar
